Data from PubChem BioAssay (NCI).
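In this assay, cells in 96-well plates receive the compound at five concentrations for 48 hours. Endpoints are linearly interpolated between the surrounding concentrations. GI50 is the concentration that inhibits growth by half. The concentration for full growth arrest is given as TGI.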

Tests used:
Assay in all cases: NCI-60 cell line screen, 48 h
786-0 renal = test system: 786-0 renal
A549 NSCLC = test system: A549 NSCLC
ACHN renal = test system: ACHN renal
BT-549 breast = test system: BT-549 breast
CAKI-1 renal = test system: CAKI-1 renal
CCRF-CEM leukemia = test system: CCRF-CEM leukemia
COLO 205 colon = test system: COLO 205 colon
EKVX NSCLC = test system: EKVX NSCLC
HCT-116 colon = test system: HCT-116 colon
HCT-15 colon = test system: HCT-15 colon
HL-60(TB) leukemia = test system: HL-60(TB) leukemia
HOP-62 NSCLC = test system: HOP-62 NSCLC
HOP-92 NSCLC = test system: HOP-92 NSCLC
HS 578T breast = test system: HS 578T breast
HT29 colon = test system: HT29 colon
IGROV1 ovarian = test system: IGROV1 ovarian
K-562 leukemia = test system: K-562 leukemia
KM12 colon = test system: KM12 colon
M14 melanoma = test system: M14 melanoma
MALME-3M melanoma = test system: MALME-3M melanoma
MCF7 breast = test system: MCF7 breast
MDA-MB-231 breast = test system: MDA-MB-231 breast
MDA-MB-435 = test system: MDA-MB-435
MOLT-4 leukemia = test system: MOLT-4 leukemia
NCI-H226 lung = test system: NCI-H226 lung
NCI-H23 lung = test system: NCI-H23 lung
NCI-H460 lung = test system: NCI-H460 lung
NCI-H522 lung = test system: NCI-H522 lung
NCI/ADR-RES ovarian = test system: NCI/ADR-RES ovarian
OVCAR-5 ovarian = test system: OVCAR-5 ovarian
OVCAR-8 ovarian = test system: OVCAR-8 ovarian
PC-3 prostate = test system: PC-3 prostate
RPMI-8226 leukemia = test system: RPMI-8226 leukemia
SF-268 CNS = test system: SF-268 CNS
SF-539 CNS = test system: SF-539 CNS
SK-MEL-2 melanoma = test system: SK-MEL-2 melanoma
SK-MEL-28 melanoma = test system: SK-MEL-28 melanoma
SK-OV-3 ovarian = test system: SK-OV-3 ovarian
SN12C renal = test system: SN12C renal
SNB-19 CNS = test system: SNB-19 CNS
SNB-75 CNS = test system: SNB-75 CNS
T-47D breast = test system: T-47D breast
TK-10 renal = test system: TK-10 renal
U251 CNS = test system: U251 CNS
UACC-257 melanoma = test system: UACC-257 melanoma
UO-31 renal = test system: UO-31 renal
A498 renal = test system: A498 renal
HCC-2998 colon = test system: HCC-2998 colon
OVCAR-4 ovarian = test system: OVCAR-4 ovarian
SF-295 CNS = test system: SF-295 CNS
SR leukemia = test system: SR leukemia

In the case of `CC12OC(C(=O)C13CCC3)C1C(=O)c3ccccc3C(=O)C12` (configuration not stated), the GI50 (786-0 renal) is reported as > 100 µM, the TGI (786-0 renal) is reported as > 100 µM and the GI50 (A549 NSCLC) is reported as > 100 µM. For the same molecule, the TGI (A549 NSCLC) was > 100 µM, the GI50 (ACHN renal) was > 100 µM and the TGI (ACHN renal) was > 100 µM. For the same molecule, the GI50 (BT-549 breast) was > 100 µM, the TGI (BT-549 breast) was > 100 µM and the GI50 (CAKI-1 renal) was 32.7 µM. The TGI (CAKI-1 renal) was > 100 µM, the GI50 (CCRF-CEM leukemia) was 36.9 µM and the TGI (CCRF-CEM leukemia) was > 100 µM. For the same molecule, the GI50 (COLO 205 colon) was > 100 µM, the TGI (COLO 205 colon) was > 100 µM and the GI50 (EKVX NSCLC) was > 100 µM. For the same molecule, the TGI (EKVX NSCLC) was > 100 µM, the GI50 (HCT-116 colon) was > 100 µM and the TGI (HCT-116 colon) was > 100 µM. The GI50 (HCT-15 colon) was > 100 µM, the TGI (HCT-15 colon) was > 100 µM and the GI50 (HL-60(TB) leukemia) was 52 µM. The TGI (HL-60(TB) leukemia) was > 100 µM, the GI50 (HOP-62 NSCLC) was > 100 µM and the TGI (HOP-62 NSCLC) was > 100 µM. For the same molecule, the GI50 (HOP-92 NSCLC) was > 100 µM, the TGI (HOP-92 NSCLC) was > 100 µM and the GI50 (HS 578T breast) was > 100 µM. For the same molecule, the TGI (HS 578T breast) was > 100 µM, the GI50 (HT29 colon) was > 100 µM and the TGI (HT29 colon) was > 100 µM. For the same molecule, the GI50 (IGROV1 ovarian) was > 100 µM, the TGI (IGROV1 ovarian) was > 100 µM and the GI50 (K-562 leukemia) was 58.1 µM. For the same molecule, the TGI (K-562 leukemia) was > 100 µM, the GI50 (KM12 colon) was 32.4 µM and the TGI (KM12 colon) was > 100 µM. For the same molecule, the GI50 (M14 melanoma) was > 100 µM, the TGI (M14 melanoma) was > 100 µM and the GI50 (MALME-3M melanoma) was 33 µM. The TGI (MALME-3M melanoma) was > 100 µM, the GI50 (MCF7 breast) was > 100 µM and the TGI (MCF7 breast) was > 100 µM. The GI50 (MDA-MB-231 breast) was 10.4 µM, the TGI (MDA-MB-231 breast) was > 100 µM and the GI50 (MDA-MB-435) was > 100 µM. For the same molecule, the TGI (MDA-MB-435) was > 100 µM, the GI50 (MOLT-4 leukemia) was 37.6 µM and the TGI (MOLT-4 leukemia) was > 100 µM. For the same molecule, the GI50 (NCI-H226 lung) was 38.4 µM, the TGI (NCI-H226 lung) was > 100 µM and the GI50 (NCI-H23 lung) was 38 µM. For the same molecule, the TGI (NCI-H23 lung) was > 100 µM, the GI50 (NCI-H460 lung) was > 100 µM and the TGI (NCI-H460 lung) was > 100 µM. For the same molecule, the GI50 (NCI-H522 lung) was > 100 µM, the TGI (NCI-H522 lung) was > 100 µM and the GI50 (NCI/ADR-RES ovarian) was > 100 µM. The TGI (NCI/ADR-RES ovarian) was > 100 µM, the GI50 (OVCAR-5 ovarian) was > 100 µM and the TGI (OVCAR-5 ovarian) was > 100 µM. For the same molecule, the GI50 (OVCAR-8 ovarian) was 61.8 µM, the TGI (OVCAR-8 ovarian) was > 100 µM and the GI50 (PC-3 prostate) was 70.7 µM. For the same molecule, the TGI (PC-3 prostate) was > 100 µM, the GI50 (RPMI-8226 leukemia) was 26.5 µM and the TGI (RPMI-8226 leukemia) was > 100 µM. The GI50 (SF-268 CNS) was > 100 µM, the TGI (SF-268 CNS) was > 100 µM and the GI50 (SF-539 CNS) was > 100 µM. For the same molecule, the TGI (SF-539 CNS) was > 100 µM, the GI50 (SK-MEL-2 melanoma) was > 100 µM and the TGI (SK-MEL-2 melanoma) was > 100 µM. For the same molecule, the GI50 (SK-MEL-28 melanoma) was > 100 µM, the TGI (SK-MEL-28 melanoma) was > 100 µM and the GI50 (SK-OV-3 ovarian) was > 100 µM. For the same molecule, the TGI (SK-OV-3 ovarian) was > 100 µM, the GI50 (SN12C renal) was 76.7 µM and the TGI (SN12C renal) was > 100 µM. For the same molecule, the GI50 (SNB-19 CNS) was > 100 µM, the TGI (SNB-19 CNS) was > 100 µM and the GI50 (SNB-75 CNS) was > 100 µM. The TGI (SNB-75 CNS) was > 100 µM, the GI50 (T-47D breast) was 44 µM and the TGI (T-47D breast) was > 100 µM. For the same molecule, the GI50 (TK-10 renal) was 92.5 µM, the TGI (TK-10 renal) was > 100 µM and the GI50 (U251 CNS) was 55 µM. For the same molecule, the TGI (U251 CNS) was > 100 µM, the GI50 (UACC-257 melanoma) was 44 µM and the TGI (UACC-257 melanoma) was > 100 µM. The GI50 (UO-31 renal) was > 100 µM and the TGI (UO-31 renal) was > 100 µM.
`Cc1c(C(=O)OCc2ccccc2)[n+](=O)c2cc(F)c(F)cc2n1[O-]` was tested, and the TGI (786-0 renal) was > 100 µM, the TGI (A498 renal) was 3.12 µM and the TGI (ACHN renal) was 3.85 µM. The TGI (BT-549 breast) was 3.62 µM, the TGI (CAKI-1 renal) was 3.92 µM and the TGI (CCRF-CEM leukemia) was > 100 µM. For the same molecule, the TGI (COLO 205 colon) was 9.62 µM, the TGI (HCC-2998 colon) was 4.68 µM and the TGI (HCT-116 colon) was > 100 µM. The TGI (HCT-15 colon) was > 100 µM, the TGI (HL-60(TB) leukemia) was 3.53 µM and the TGI (HOP-62 NSCLC) was > 100 µM. For the same molecule, the TGI (HS 578T breast) was 2.97 µM, the TGI (IGROV1 ovarian) was 3.3 µM and the TGI (K-562 leukemia) was > 100 µM. It also gave a TGI (KM12 colon) of 39.4 µM, a TGI (MALME-3M melanoma) of 4.48 µM and a TGI (MCF7 breast) of 6.32 µM. The TGI (MDA-MB-435) was 3.94 µM, the TGI (MOLT-4 leukemia) was 5.5 µM and the TGI (NCI-H226 lung) was 6.74 µM. For the same molecule, the TGI (NCI-H23 lung) was 6.27 µM, the TGI (NCI-H460 lung) was 6.6 µM and the TGI (NCI-H522 lung) was 3.96 µM. For the same molecule, the TGI (NCI/ADR-RES ovarian) was > 100 µM, the TGI (OVCAR-4 ovarian) was 3.53 µM and the TGI (OVCAR-5 ovarian) was > 100 µM. For the same molecule, the TGI (RPMI-8226 leukemia) was > 100 µM, the TGI (SF-268 CNS) was 4.53 µM and the TGI (SF-295 CNS) was 4.06 µM. The TGI (SF-539 CNS) was 5.75 µM, the TGI (SK-MEL-2 melanoma) was 3.51 µM and the TGI (SK-MEL-28 melanoma) was 4.07 µM. The TGI (SNB-19 CNS) was 3.87 µM, the TGI (SNB-75 CNS) was 4.68 µM and the TGI (SR leukemia) was 3.19 µM. For the same molecule, the TGI (T-47D breast) was 4.86 µM, the TGI (TK-10 renal) was 37.7 µM and the TGI (UACC-257 melanoma) was 4 µM. For the same molecule, the TGI (UO-31 renal) was 3.36 µM.
